Measurements taken from patent US20080063628A1, “METHODS TO PROMOTE CELL DIFFERENTIATION” (priority 2006, published 2008).

What was measured:
[1] = tested on: amniotic fluid-derived cell line; experiment: Two sequential low dose trichostatin A treatments, gene expression by RT-PCR (Example 7); assay type: cell-based, human; details: for Gata1 gene expression / HNF (HNF-3 beta) gene expression / Insulin gene expression / Pdx-1 gene expression / sox17 gene expression: 500 nM 0-24 h + 96-120 h
Protocol: (§1) Several cell lines obtained from different amniotic fluid specimens (see Example 14) and pancreas donors (see Example 13) were tested with similar results. Two lines at similar passage number but derived from different amniotic fluid specimens are shown in Table VII-A and Table VII-B for this example. One of these cell lines was also used in examples 2 and 4 above. In addition, this example also contains comparison data in Table VII-C and Table VII-D for a single pancreatic-derived stromal line grown to early and late passage number.
(§2) Amniotic fluid derived cells or pancreatic-derived stromal cells were seeded into 24-well tissue culture plates at a density of 5000/cm^2 and cultured in AMNIOMAX (Invitrogen) or DMEM with 10% FBS respectively under standard cell culture conditions until confluent. After the cells reached confluency, amniotic fluid derived cells were treated at time 0 hours with a dose of 500 nM trichostatin A, and pancreatic-derived stromal cells were treated with a dose of 1.25 μM trichostatin A solubilized in DMSO and medium. At time 24 hours, cell cultures underwent a complete medium change to remove all traces of trichostatin A. At time 96 hours, cell cultures were re-fed with fresh medium and received a second dose of trichostatin A at the same concentration as used previously. At time 120 hours, cell cultures again underwent a complete medium change and were cultured for an additional 24 hours or […] total incubation time.
(§3) Samples were taken daily for RT-PCR at the times indicated in Table VII-A to D. The culture medium was removed, and samples were rinsed in PBS then collected in RLT with β-mercaptoethanol (Qiagen). RNA was purified using the RNeasy Mini Kit (Qiagen) and RNA quantity and quality were determined using a spectrophotometer. cDNA was made using the iScript cDNA synthesis kit (BioRad).
(§4) Samples of 20 ng cDNA were used in each reaction to determine the expression levels of the following genes in amniotic fluid-derived cells: Gata1, HNF-3 beta, Pdx-1, insulin, and Sox17. Similarly, samples of 20 ng cDNA were used in each reaction to determine the expression level of the following genes in pancreatic-derived cells: glucagon, HNF-3 beta, insulin and Pdx-1. Real-Time PCR was performed on the Applied Biosystems 7500, and data was analyzed using the accompanying software according to the methods described in Example 15.
(§5) Real-time PCR amplifcation and quantitative analysis. Unless otherwise stated, all reagents were purchased from Applied Biosystems. Real-time PCR reactions were performed using the ABI PRISM™ 7500 Sequence Detection System. TAQMAN™ FAST UNIVERSAL PCR MASTER MIX™ (ABI, CA) was used with 20 ng of reverse transcribed RNA in a total reaction volume of 20 μl. Each cDNA sample was run in duplicate to allow correction of pipetting errors. Primers and FAM-labeled TAQMAN™ probes were used at concentrations of 200 nM. The level of expression for each target gene was normalized using the pre-developed Applied Biosystem's human glyceraldehyde-3-phosphate dehydrogenase (GAPDH) endogenous control kit. Primers and probes were designed using either ABI PRISM PRIMER EXPRESS™ software or a pre-developed ABI gene analysis kit. For each gene, either one of the primers or the probe were designed to be exon-boundary spanning. This eliminated the possibility of the primers/probe binding to any genomic DNA present. The primer and probe sets are listed as follows: Pdx-1 (Hs00426216), Insulin (Hs00355773), glucagon (Hs00174967), and FoxA2 (HNF 3-beta) (Hs00232764). The remaining primers were designed using the PRIMERS program (ABI, CA). After an initial 95° C. incubation for 20 sec, samples were cycled 40 times in two stages: a denaturation step at 95° C. for 3 sec, followed by an annealing/extension step at 60° C. for 30 sec. […]

[2] = tested on: second amniotic fluid-derived cell line; experiment: as above; assay type: cell-based, human; details: for Gata1 gene expression / HNF (HNF-3 beta) gene expression / Insulin gene expression / Pdx-1 gene expression / sox17 gene expression: 500 nM 0-24 h + 96-120 h
Protocol: as §1, §2, §3, §4, §5

Compound: CC(/C=C/C(=O)NO)=C\[C@@H](C)C(=O)c1ccc(N(C)C)cc1 [trichostatin A]
- Insulin RT-PCR detection cycle ([1]; 0.5 μM, by 48 hours (after removal at 24 h)): 36 cycles
- HNF-3 beta RT-PCR detection cycle ([1]; 0.5 μM, following the first treatment): 33 cycles
- HNF-3 beta RT-PCR detection cycle ([1]; 0.5 μM, following the second treatment): 37 cycles
- Pdx-1 RT-PCR detection cycle ([1]; 0.5 μM, for 24 hours following the addition): 37 cycles
- Gata1 gene expression ([1]; 24 hrs): nd (not detectable at >40 cycles by RT-PCR)
- HNF (HNF-3 beta) gene expression ([1]; 24 hrs): +++ (detectable at less than 35 cycles by RT-PCR with SE less than 0.9)
- Insulin gene expression ([1]; 24 hrs): nd (not detectable at >40 cycles by RT-PCR)
- Pdx-1 gene expression ([1]; 24 hrs): + (detectable between 35 and 40 cycles by RT-PCR)
- sox17 gene expression ([1]; 24 hrs): +++ (detectable at less than 35 cycles by RT-PCR with SE less than 0.9)
- Gata1 gene expression ([1]; 48 hrs): nd (not detectable at >40 cycles by RT-PCR)
- HNF (HNF-3 beta) gene expression ([1]; 48 hrs): +++ (detectable at less than 35 cycles by RT-PCR with SE less than 0.9)
- Insulin gene expression ([1]; 48 hrs): + (detectable between 35 and 40 cycles by RT-PCR)
- Pdx-1 gene expression ([1]; 48 hrs): nd (not detectable at >40 cycles by RT-PCR)
- sox17 gene expression ([1]; 48 hrs): +++ (detectable at less than 35 cycles by RT-PCR with SE less than 0.9)
- Gata1 gene expression ([1]; 72 hrs): nd (not detectable at >40 cycles by RT-PCR)
- HNF (HNF-3 beta) gene expression ([1]; 72 hrs): + (detectable between 35 and 40 cycles by RT-PCR)
- Insulin gene expression ([1]; 72 hrs): + (detectable between 35 and 40 cycles by RT-PCR)
- Pdx-1 gene expression ([1]; 72 hrs): nd (not detectable at >40 cycles by RT-PCR)
- sox17 gene expression ([1]; 72 hrs): +++ (detectable at less than 35 cycles by RT-PCR with SE less than 0.9)
- Gata1 gene expression ([1]; 96 hrs): nd (not detectable at >40 cycles by RT-PCR)
- HNF (HNF-3 beta) gene expression ([1]; 96 hrs): nd (not detectable at >40 cycles by RT-PCR)
- Insulin gene expression ([1]; 96 hrs): + (detectable between 35 and 40 cycles by RT-PCR)
- Pdx-1 gene expression ([1]; 96 hrs): nd (not detectable at >40 cycles by RT-PCR)
- sox17 gene expression ([1]; 96 hrs): +++ (detectable at less than 35 cycles by RT-PCR with SE less than 0.9)
- Gata1 gene expression ([1]; 120 hrs): nd (not detectable at >40 cycles by RT-PCR)
- HNF (HNF-3 beta) gene expression ([1]; 120 hrs): + (detectable between 35 and 40 cycles by RT-PCR)
- Insulin gene expression ([1]; 120 hrs): + (detectable between 35 and 40 cycles by RT-PCR)
- Pdx-1 gene expression ([1]; 120 hrs): nd (not detectable at >40 cycles by RT-PCR)
- sox17 gene expression ([1]; 120 hrs): +++ (detectable at less than 35 cycles by RT-PCR with SE less than 0.9)
- Gata1 gene expression ([1]; 144 hrs): nd (not detectable at >40 cycles by RT-PCR)
- HNF (HNF-3 beta) gene expression ([1]; 144 hrs): + (detectable between 35 and 40 cycles by RT-PCR)
- Insulin gene expression ([1]; 144 hrs): + (detectable between 35 and 40 cycles by RT-PCR)
- Pdx-1 gene expression ([1]; 144 hrs): nd (not detectable at >40 cycles by RT-PCR)
- sox17 gene expression ([1]; 144 hrs): +++ (detectable at less than 35 cycles by RT-PCR with SE less than 0.9)
- Pdx-1 RT-PCR detection cycle ([2]; 0.5 μM, 24 hours): 39 cycles
- Insulin RT-PCR detection cycle ([2]; 0.5 μM, 72 hours and remainder of the experiment): 34 cycles
- HNF-3 beta RT-PCR detection cycle ([2]; 0.5 μM, until 72 hours): 34 cycles
- Gata1 gene expression ([2]; 24 hrs): nd (not detectable at >40 cycles by RT-PCR)
- HNF (HNF-3 beta) gene expression ([2]; 24 hrs): +++ (detectable at less than 35 cycles RT-PCR with SE less than 0.9)
- Insulin gene expression ([2]; 24 hrs): nd (not detectable at >40 cycles by RT-PCR)
- Pdx-1 gene expression ([2]; 24 hrs): + (detectable between 35 and 40 cycles RT-PCR)
- sox17 gene expression ([2]; 24 hrs): +++ (detectable at less than 35 cycles RT-PCR with SE less than 0.9)
- Gata1 gene expression ([2]; 48 hrs): nd (not detectable at >40 cycles by RT-PCR)
- HNF (HNF-3 beta) gene expression ([2]; 48 hrs): +++ (detectable at less than 35 cycles RT-PCR with SE less than 0.9)
- Insulin gene expression ([2]; 48 hrs): nd (not detectable at >40 cycles by RT-PCR)
- Pdx-1 gene expression ([2]; 48 hrs): nd (not detectable at >40 cycles by RT-PCR)
- sox17 gene expression ([2]; 48 hrs): +++ (detectable at less than 35 cycles RT-PCR with SE less than 0.9)
- Gata1 gene expression ([2]; 72 hrs): nd (not detectable at >40 cycles by RT-PCR)
- HNF (HNF-3 beta) gene expression ([2]; 72 hrs): +++ (detectable at less than 35 cycles RT-PCR with SE less than 0.9)
- Insulin gene expression ([2]; 72 hrs): +++ (detectable at less than 35 cycles RT-PCR with SE less than 0.9)
- Pdx-1 gene expression ([2]; 72 hrs): nd (not detectable at >40 cycles by RT-PCR)
- sox17 gene expression ([2]; 72 hrs): +++ (detectable at less than 35 cycles RT-PCR with SE less than 0.9)
- Gata1 gene expression ([2]; 96 hrs): nd (not detectable at >40 cycles by RT-PCR)
- HNF (HNF-3 beta) gene expression ([2]; 96 hrs): + (detectable between 35 and 40 cycles RT-PCR)
- Insulin gene expression ([2]; 96 hrs): +++ (detectable at less than 35 cycles RT-PCR with SE less than 0.9)
- Pdx-1 gene expression ([2]; 96 hrs): nd (not detectable at >40 cycles by RT-PCR)
- sox17 gene expression ([2]; 96 hrs): +++ (detectable at less than 35 cycles RT-PCR with SE less than 0.9)
- Gata1 gene expression ([2]; 120 hrs): nd (not detectable at >40 cycles by RT-PCR)
- HNF (HNF-3 beta) gene expression ([2]; 120 hrs): + (detectable between 35 and 40 cycles RT-PCR)
- Insulin gene expression ([2]; 120 hrs): + (detectable between 35 and 40 cycles RT-PCR)
- Pdx-1 gene expression ([2]; 120 hrs): nd (not detectable at >40 cycles by RT-PCR)
- sox17 gene expression ([2]; 120 hrs): +++ (detectable at less than 35 cycles RT-PCR with SE less than 0.9)
- Gata1 gene expression ([2]; 144 hrs): nd (not detectable at >40 cycles by RT-PCR)
- HNF (HNF-3 beta) gene expression ([2]; 144 hrs): + (detectable between 35 and 40 cycles RT-PCR)
- Insulin gene expression ([2]; 144 hrs): +++ (detectable at less than 35 cycles RT-PCR with SE less than 0.9)
- Pdx-1 gene expression ([2]; 144 hrs): nd (not detectable at >40 cycles by RT-PCR)
- sox17 gene expression ([2]; 144 hrs): +++ (detectable at less than 35 cycles RT-PCR with SE less than 0.9)
